The text below walks through data of US11297838B2, “Pesticidal compositions and methods” (CORTEVA AGRISCIENCE LLC, priority 2018, dated 2022).

As a reminder, the mortality is the share of the test organisms that died.

What all share (format): in vivo
Data set [1] relates to Cabbage Looper (Trichloplusia ni, TRIPNI). The data set can be described thus: Insecticidal test for cabbage looper (CL), 128-well diet tray assay. The following applies: Trichoplusia ni, 168 h; 50 μg/cm^2 on artificial diet, second instar larvae, five to seven days, 25° C.; read-out: CL rating, % Control (or Mortality).
Data set [2] deals with Yellow Fever Mosquito (Aedes aegypti, AEDSAE). The following applies: about 1 day-old larvae, 4000 ppm master solution diluted, 3 days, room temperature. The protocol:
Insecticidal Test for Yellow Fever Mosquito (Aedes aegypti, AEDSAE) (“YFM”)
Master plates containing 400 μg of a molecule dissolved in 100 μL of dimethyl sulfoxide (DMSO) (equivalent to a 4000 ppm solution) are used. A master plate of assembled molecules contains 15 μL per well. To this plate, 135 μL of a 90:10 water/acetone mixture is added to each well. A robot (Biomek® NXP Laboratory Automation Workstation) is programmed to dispense 15 μL aspirations from the master plate into an empty 96-well shallow plate (“daughter” plate). There are 6 reps (“daughter” plates) created per master. The created “daughter” plates are then immediately infested with YFM larvae.
The day before plates are to be treated, mosquito eggs are placed in Millipore water containing liver powder to begin hatching (4 g. into 400 mL). After the “daughter” plates are created using the robot, they are infested with 220 μL of the liver powder/larval mosquito mixture (about 1 day-old larvae). After plates are infested with mosquito larvae, a non-evaporative lid is used to cover the plate to reduce drying. Plates are held at room temperature for 3 days prior to grading. After 3 days, each well is observed and scored based on mortality. In the reporting of the results, the “YFM Rating Table” was used.

Data set [3] concerns Beet Armyworm (Spodoptera exigua, LAPHEG). The data set can be described thus: Insecticidal test for beet armyworm (BAW), 128-well diet tray assay. The following applies: 168 h, 50 μg/cm^2 on artificial diet, second instar larvae, five to seven days, 25° C., read-out: BAW rating, % Control (or Mortality).
Data set [4] shares this test system. The description is as above. The following applies: 168 h, tested at 5 μg/cm^2, second instar larvae, five to seven days, read-out: BAW rating, % Control (or Mortality).
The subject of data set [5] is Cabbage Looper (Trichloplusia ni, TRIPNI). The data set can be described thus: Insecticidal test for cabbage looper (CL), 128-well diet tray assay. The following applies: Trichoplusia ni, 168 h; tested at 5 μg/cm^2, second instar larvae, five to seven days; read-out: CL rating, % Control (or Mortality).

On to `Cc1ccc(F)c(N2C(=O)CS/C2=N\C(=O)OCCc2ccc(-c3ncn(-c4ccc(OC(F)(F)F)cc4)n3)cc2)c1` [A11, 4-(1-(4-(Trifluoromethoxy)phenyl)-1H-1,2,4-triazol-3-yl)phenethyl (Z)-(3-(2-fluoro-5-methylphenyl)-4-oxothiazolidin-2-ylidene)carbamate], for which the mortality at 50 µg/cm2 in data set [1] was in the range of 50 to 100%; in data set [3] it was 0 to 50%. Also, in data set [2], the “YFM rating, % Control (or Mortality)” value was “A (80-100)”.

For `Cc1ccc(Cl)c(N2C(=O)CS/C2=N\C(=O)OCCc2ccc(-c3ncn(-c4ccc(OC(F)(F)F)cc4)n3)cc2)c1` [A12, 4-(1-(4-(Trifluoromethoxy)phenyl)-1H-1,2,4-triazol-3-yl)phenethyl (Z)-(3-(2-chloro-5-methylphenyl)-4-oxothiazolidin-2-ylidene)carbamate], the mortality at 50 µg/cm2 in data set [1] and in data set [3] was 50 to 100% throughout. The “YFM rating, % Control (or Mortality)” value in data set [2] is on record as “A (80-100)”.

Regarding `COc1ccc(C)cc1N1C(=O)CS/C1=N\C(=O)OCCc1ccc(-c2ncn(-c3ccc(OC(F)(F)F)cc3)n2)cc1` [A13, 4-(1-(4-(Trifluoromethoxy)phenyl)-1H-1,2,4-triazol-3-yl)phenethyl (Z)-(3-(2-methoxy-5-methylphenyl)-4-oxothiazolidin-2-ylidene)carbamate], the mortality at 50 µg/cm2 in data set [1] and in data set [3] was 50 to 100% each time. Moreover, the “YFM rating, % Control (or Mortality)” value in data set [2] is “A (80-100)”.

Take `Cc1ccc(C(F)(F)F)c(N2C(=O)CS/C2=N\C(=O)OCCc2ccc(-c3ncn(-c4ccc(OC(F)(F)F)cc4)n3)cc2)c1` [A14, 4-(1-(4-(Trifluoromethoxy)phenyl)-1H-1,2,4-triazol-3-yl)phenethyl (Z)-(3-(5-methyl-2-(trifluoromethyl)phenyl)-4-oxothiazolidin-2-ylidene)carbamate]: the mortality at 50 µg/cm2 in data set [1] and in data set [3] was 50 to 100% each time. Further, the “YFM rating, % Control (or Mortality)” value in data set [2] was “A (80-100)”.

For the compound `CCCc1ccc(C)cc1N1C(=O)CS/C1=N\C(=O)OCCc1ccc(-c2ncn(-c3ccc(OC(F)(F)F)cc3)n2)cc1` [A15, 4-(1-(4-(Trifluoromethoxy)phenyl)-1H-1,2,4-triazol-3-yl)phenethyl (Z)-(3-(5-methyl-2-propylphenyl)-4-oxothiazolidin-2-ylidene)carbamate], the mortality at 50 µg/cm2 in data set [1] and in data set [3] was 50 to 100% in each case. Further, the “YFM rating, % Control (or Mortality)” value in data set [2] is “A (80-100)”.

As to `CCOc1ccc(C)cc1N1C(=O)CS/C1=N\C(=O)OCCc1ccc(-c2ncn(-c3ccc(OC(F)(F)F)cc3)n2)cc1` [A16, 4-(1-(4-(Trifluoromethoxy)phenyl)-1H-1,2,4-triazol-3-yl)phenethyl (Z)-(3-(2-ethoxy-5-methylphenyl)-4-oxothiazolidin-2-ylidene)carbamate], the mortality at 50 µg/cm2 in data set [1] and in data set [3] was 50 to 100% throughout. Further, in data set [2], the “YFM rating, % Control (or Mortality)” value is “A (80-100)”.

Regarding `Cc1cc(N2C(=O)CS/C2=N\C(=O)OCCc2ccc(-c3ncn(-c4ccc(OC(F)(F)F)cc4)n3)cc2)c(C(C)C)cc1F` [A17, 4-(1-(4-(Trifluoromethoxy)phenyl)-1H-1,2,4-triazol-3-yl)phenethyl (Z)-(3-(4-fluoro-2-isopropyl-5-methylphenyl)-4-oxothiazolidin-2-ylidene)carbamate], the mortality at 50 µg/cm2 in data set [1] and in data set [3] was 50 to 100% in each case. The “YFM rating, % Control (or Mortality)” value in data set [2] was “A (80-100)”.

As to `Cc1cc(Cl)c(N2C(=O)CS/C2=N\C(=O)OCCc2ccc(-c3ncn(-c4ccc(OC(F)(F)F)cc4)n3)cc2)cc1C` [A18, 4-(1-(4-(Trifluoromethoxy)phenyl)-1H-1,2,4-triazol-3-yl)phenethyl (Z)-(3-(2-chloro-4,5-dimethylphenyl)-4-oxothiazolidin-2-ylidene)carbamate], the mortality at 50 µg/cm2 in data set [1] and in data set [3] was 0% throughout. In data set [2], the “YFM rating, % Control (or Mortality)” value is recorded as “D (No activity noticed in this bioassay)”.

With `Cc1ccc(C(C)C)c(N2C(=O)CS/C2=N\C(=O)OC(C)Cc2ccc(-c3ncn(-c4ccc(OC(F)(F)F)cc4)n3)cc2)c1` (centres unmarked) [A19, 1-(4-(1-(4-(Trifluoromethoxy)phenyl)-1H-1,2,4-triazol-3-yl)phenyl)propan-2-yl (Z)-(3-(2-isopropyl-5-methylphenyl)-4-oxothiazolidin-2-ylidene)carbamate], the mortality at 50 µg/cm2 in data set [1] and in data set [3] was 50 to 100% throughout. Moreover, in data set [2], the “YFM rating, % Control (or Mortality)” value is reported as “B (More than 0-Less than 80)”.

On to `Cc1ccc(C(C)C)c(N2C(=O)CS/C2=N\C(=O)OCC(F)c2ccc(-c3ncn(-c4ccc(OC(F)(F)C(F)(F)F)cc4)n3)cc2)c1` (centres unmarked) [A26, 2-Fluoro-2-(4-(1-(4-(perfluoroethoxy)phenyl)-1H-1,2,4-triazol-3-yl)phenyl)ethyl (Z)-(3-(2-isopropyl-5-methylphenyl)-4-oxothiazolidin-2-ylidene)carbamate], for which the mortality at 5 µg/cm2 was 50 to 100% in data set [4] and 0 to 50% in data set [5].
